Reference: patent US12691124B2, “Methods of controlling and improving brain health” (ICAHN SCHOOL OF MEDICINE AT MOUNT SINAI, priority 2019, dated 2026)

Key:
primary microglia = assay: Gene expression in primary microglia treated with IBET858; assay type: cell-based, mouse
Method: Primary Microglia Culture. Postnatal day 0 C57/Bl6 mice were decapitated in ice cold HBSS. The forebrain was rapidly dissected and treated as above in order to generate a single cell suspension. 60,000 cells per cm2 were seeded in vented, Poly-D-lysine coated flasks. Mixed glial cultures were maintained in DMEM containing 10% FBS and 1% penicillin/streptomycin for 3 weeks. After three weeks, microglia were isolated by shaking the mixed glial cultures for 4 hours at 360 rpm and re-plated at density on 100,0000 cells/cm2. Cultures were given 24 hours to settle before treatment. Cultures were pre-treated for 30 minutes with either DMSO (0.01%) or 1 uM IBET858. After 30 minutes, LPS (100 ng/ml) was added to the cultures. RNA was isolated with Trizol LS according to the manufacturer's recommendations after 1, 4 and 12 hours of LPS treatment.
To test the role of BET proteins in microglial gene expression, primary microglia cultures from mouse forebrain were treated with the brain-permeable BET inhibitors IBET858 (1 μM) for 1, 4, or 12 hours (FIG. 3A). Because loss of BET activity in macrophages negatively impacts differentiation and proliferation189, microglia identity genes were examined to understand if microglial lineage is regulated by BET proteins (FIG. 3C). Hexb, Fcrls, and Fcer1g expression was unaffected by IBET858 indicating microglial differentiation is unaffected.

primary cortical neurons = assay: Axion multielectrode array recording of neuronal firing; assay type: cell-based, mouse
Method: Axion Recordings. A 48-well multielectrode array plate (Axion) was coated with 0.1% PEI for 1 hour at 37 degrees and washed four times with deionized water. Plates were dried overnight at room temperature in a sterile hood. Plates were incubated with 20 ug/ml laminin for one hour at 37 degrees before cells were seeded onto the plate. Primary cortical neurons were plated 50,000 per well. Plates were equilibrated on the Axion Maestro system at 37 degrees C. for 5 minutes before each 10 minute recording session. Baseline activity was recorded at day 7 before cells were treated with either I-BET858 (1 um) or DMSO. Electrical activity was recorded every day until day 21 and then at regular intervals until activity was no longer detected.
Therefore to determine the effect of chronic BET inhibition on electrical activity, neurons were cultured on the Axion Microelectrode array system in the presence of IBET858. Primary cortical neurons first show electrical activity at day 7 which gradually increases over time, peaking around day 14 consistent with published time courses of synaptogenesis and electrical activity in vitro. […] In one experiment, IBET858 treated neurons lived until day 77, 86% longer than control neurons.
One could argue that the protective effect of IBET858 was caused by a decreased sensing of glutamate levels. […] To further explore this hypothesis, neuronal firing in response to a sub-lethal dose of glutamate (50 μM) was measured using the Axion system (FIG. 10A). At day 14, neurons treated with 50 μM glutamate increased their firing rate 127.4+/−44.4% compared to baseline. […] Therefore, it is appropriate to use glutamate as a neuronal death assay.

CC(=O)N1c2ccc(-c3ccc(CN4CCCCC4)cc3)cc2[C@H](Nc2ccccc2)CC1C (stereo in doubt) [IBET858]
immune response and cell activation pathway genes (primary microglia; 1 μM): suppresses | genes significantly down-regulated (primary microglia; 1 μM IBET858, 4 hours): 1245 genes | genes significantly down-regulated (primary microglia; 1 μM IBET858, 12 hours): 1175 genes | microglia identity gene expression (Hexb, Fcrls, Fcer1g) (primary microglia; 1 μM, 1, 4 or 12 hours): unaffected | phagocytosis gene expression (primary microglia; 1 μM, all time points): also unaffected | day until which neurons lived, one experiment (primary cortical neurons; 1 μM): 77 days | lifetime longer than control neurons, one experiment (primary cortical neurons; 1 μM): 86% | neuronal survival (firing) after washout (primary cortical neurons; 1 uM for 1 week followed by washout at day 14): prolonged neuronal survival that is maintained even in the absence of IBET | activity patterns of long-lived treated neurons (primary cortical neurons; 1 uM from day 7): maintain normal activity patterns | day until which neurons continued to fire (primary cortical neurons; 1 μM, control ceased firing on average at day 29): 45 days | increase in firing rate compared to baseline after glutamate (primary cortical neurons; 50 μM glutamate, day 14, control 127.4+/−44.4%): 129.3+/−26.2%
